Details in all cases: 50 mM KHCO3, 50 mM HEPES, 50 mM Na2SO4, 50 mM MgSO4, pH 6, 1°C
Assay [1] deals with T1, CaaB (Cupriavidus necator, UniProt Q0JYI9).
T1 construct: gene caa

Assay [2] addresses Can2 (Cupriavidus necator, UniProt Q0JYX2).
Assay [3] concerns the target Caa (Cupriavidus necator, UniProt Q0JYI9).
Assay [4] concerns the target Can (Cupriavidus necator, UniProt Q0KFA0).
Assay [5] addresses T2, Cag (Cupriavidus necator, UniProt Q0KCD8).
T2 construct: gene H16_A1192

Molecules are shown by their SMILES.

Can2, sequence (Q0JYX2 1-235): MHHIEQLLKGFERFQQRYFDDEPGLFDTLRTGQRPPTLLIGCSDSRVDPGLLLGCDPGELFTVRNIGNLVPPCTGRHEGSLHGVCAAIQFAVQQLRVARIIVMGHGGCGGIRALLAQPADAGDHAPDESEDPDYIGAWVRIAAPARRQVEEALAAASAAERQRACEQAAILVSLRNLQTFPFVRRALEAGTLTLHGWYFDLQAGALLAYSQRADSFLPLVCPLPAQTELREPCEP
Caa, sequence (Q0JYI9 1-249): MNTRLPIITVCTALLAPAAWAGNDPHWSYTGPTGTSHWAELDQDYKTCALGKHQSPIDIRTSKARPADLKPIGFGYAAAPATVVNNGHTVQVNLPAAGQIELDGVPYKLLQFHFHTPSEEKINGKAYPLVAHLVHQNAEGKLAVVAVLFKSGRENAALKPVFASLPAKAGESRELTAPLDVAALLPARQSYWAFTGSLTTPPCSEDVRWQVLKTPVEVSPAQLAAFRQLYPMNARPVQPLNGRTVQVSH
Can, sequence (Q0KFA0 1-223): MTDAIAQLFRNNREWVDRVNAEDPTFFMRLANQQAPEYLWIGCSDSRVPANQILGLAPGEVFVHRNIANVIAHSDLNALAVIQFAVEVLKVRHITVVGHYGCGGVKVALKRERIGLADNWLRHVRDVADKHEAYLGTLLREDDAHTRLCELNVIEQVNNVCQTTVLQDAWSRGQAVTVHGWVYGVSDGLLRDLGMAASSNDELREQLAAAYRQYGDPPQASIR
T2 sequence (Q0KCD8 1-174): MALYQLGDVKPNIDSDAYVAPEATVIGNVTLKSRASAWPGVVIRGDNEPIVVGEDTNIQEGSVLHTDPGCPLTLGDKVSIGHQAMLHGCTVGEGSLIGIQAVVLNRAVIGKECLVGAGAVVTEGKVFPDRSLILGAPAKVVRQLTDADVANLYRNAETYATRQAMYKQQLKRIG
T1 sequence (Q0JYI9 24-249): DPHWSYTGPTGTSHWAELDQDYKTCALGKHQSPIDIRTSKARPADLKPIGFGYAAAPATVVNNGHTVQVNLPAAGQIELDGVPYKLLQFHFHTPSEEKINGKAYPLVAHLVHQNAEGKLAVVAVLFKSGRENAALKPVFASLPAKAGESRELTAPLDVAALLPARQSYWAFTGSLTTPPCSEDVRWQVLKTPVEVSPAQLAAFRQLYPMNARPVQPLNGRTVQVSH

`O=C(O)O` [bicarbonate]: the “stopped-flow pH-indicator (phenol red, A557nm) assay” value is “(CaaB) exhibited similar activity values when compared to the purified, Strep-tagged Caa enzyme” in assay [1]; “the specific activities of both Can and Can2 were similar with bicarbonate as a substrate” in assay [2]; “All CAs were active towards CO2 and bicarbonate” in assay [3]; “the specific activities of both Can and Can2 were similar with bicarbonate as a substrate” in assay [4]; “Cag presented the highest activity using bicarbonate as a carbon source” in assay [5].

The values above are taken from paper PMC3904209 (AMB Express, 2014).
